# Laboratory results: patent US6004967A, “Psoriasis treatment with quinazoline compounds” (priority 1997, dated 1999)
# Key:
# [1] = Solubility of A1 in pure solvents
# [2] = Plasma levels of A1 after topical application in nu/nu mice
smiles,measurement,setting,value
"COc1cc2ncnc(Nc3cccc(Br)c3)c2cc1OC [A1, 4-(3-Bromophenylamino)-6,7-dimethoxyquinazoline]",Not Soluble at,"[1]; Benzyl Alcohol, NF",4.77 % w/w
same,Soluble at,"[1]; Benzyl Alcohol, NF",3.60 % w/w
same,Not Soluble at,"[1]; Benzyl Benzoate, USP (printed Betizyl Berizoate)",0.85 % w/w
same,Not Soluble at,[1]; Caprylic/Capric Triglyceride (Miglyol 812),0.84 % w/w
same,Not Soluble at,"[1]; Dehydrated Alcohol, USP",0.98 % w/w
same,Soluble at,"[1]; Dehydrated Alcohol, USP",0.76 % w/w
same,compatibility / solubility,[1]; Diethyl Sebacate,not compatible (yellow)
same,Not Soluble at,[1]; Diisopropyl Adipate,0.66 % w/w
same,Not Soluble at,[1]; Dimethyl isosorbide,0.97 % w/w
same,Not Soluble at,[1]; Ethoxydiglycol (Transcutol),3.74 % w/w
same,Soluble at,[1]; Ethoxydiglycol (Transcutol),2.41 % w/w
same,Not Soluble at,[1]; Finsolve TN (Finetex),1.27 % w/w
same,Not Soluble at,[1]; Hexylene Glycol,2.05 % w/w
same,Soluble at,[1]; Hexylene Glycol,0.98 % w/w
same,Not Soluble at,"[1]; Isopropyl Alcohol, 99%",1.25 % w/w
same,Not Soluble at,[1]; Isotearyl Alcohol,0.99 % w/w
same,Soluble at,[1]; Laureth 4,4.10 % w/w
same,Not Soluble at,"[1]; Octyldodecanol, NF",0.68 % w/w
same,Not Soluble at,"[1]; Oleic Acid, NF",1.00 % w/w
same,Not Soluble at,"[1]; Polyethylene Glycol 300, USP",2.10 % w/w
same,Soluble at,"[1]; Polyethylene Glycol 300, USP",1.00 % w/w
same,Not Soluble at,"[1]; Polyethylene Glycol 400, USP",2.44 % w/w
same,Soluble at,"[1]; Polyethylene Glycol 400, USP",1.76 % w/w
same,Not Soluble at,"[1]; Polysorbate 20, NF",0.99 % w/w
same,Not Soluble at,"[1]; Propylene Carbonate, NF",1.46 % w/w
same,Soluble at,"[1]; Propylene Carbonate, NF",0.98 % w/w
same,Not Soluble at,"[1]; Propylene Glycol, USP",0.59 % w/w
same,Not Soluble at,[1]; Triacetin USP,0.96 % w/w
same,solubility in nonirritant solvents (in words),[1]; among anticancer compounds,relative high solubility in nonirritant solvents
same,concentration at 0.5 h,"[2]; mouse, plasma, topical or ocular",< 2000 ng/mL
same,discomfort or increased grooming behavior,"[2]; topical 2% ointment, nu/nu mice",no discomfort or increased grooming behavior
